Where two headings read alike, the source gives them in different places.

The subject of data set [1] is lung cancer cell (A549). Briefly: In vitro inhibition of lung cancer cell, time course. The format is cell-based. As to the method:
(§1) The relation between administering period and curable effect was intensely observed. That is to say, the inhibiting rate would be recorded according to different administering time of the medicine, such as 2, 3, 4 days administration. It is discovered that administered raw medicine of low concentration, such as 0.1 μg, 0.5 μg, 2 μg/ml, had weak inhibiting effects towards three different cancer cells. As the administering period is extended, the inhibiting effect would gradually be strengthened. […] The extension of administering period could not promptly increase the inhibiting effect. […] In short, for HT-29, A549, and Hep-G2, the maximum inhibiting effect occurred mostly at the fourth administering day, therefore illustrating a better slow-release effect of such medicine.

The subject of data set [2] is liver cancer cell (Hep-G2). Briefly: In vitro inhibition of liver cancer cell, time course. It counts as cell-based. As to the method:
as §1

Data set [3] concerns Kunming mice. The following applies: 10 mice. On the procedure:
The mice were provided by Medical school of Tongji University and with a batch No. 19-052.
Commonly, the lethality of the mice was regarded as positive index. After the death mice of each group were recorded and calculated and a LD50 value was calculated according to the Bliss statistical method.

Data set [4] relates to intestinal cancer cell (HT-29). Briefly: In vitro inhibition of intestinal cancer cell, time course. The format is cell-based. On the procedure:
as §1

Setting [5] is: administering dosage 2250, intravenous.
Setting [6] is: administering dosage 3713, intravenous.
The mark [7] stands for this setting: administering dosage 6126, intravenous.
[8] abbreviates: administering dosage 10108, intravenous.
Setting [9] is: administering dosage 16678, intravenous.

Take `C[C@H]1[C@H](C)CC[C@]2(C(=O)O)CC[C@]3(C)C(=CC[C@@H]4[C@@]5(C)CC[C@H](O)C(C)(C)[C@@H]5CC[C@]43C)[C@H]12` [Ursolic Acid for Injection, ursolic acid]: the peak inhibiting effect in data set [1] (A549, 10, 50 μg/ml, third day of administration) turned out to be 95%; in data set [2] (Hep-G2, 10, 50 μg/ml, third day of administration), 95%; in data set [4] (HT-29, 10, 50 μg/ml, third day of administration), 95%. Further, the inhibiting effect result is “strong” in data set [1] (A549, high concentration 10, 50 μg/ml); “weak” in data set [1] (A549, low concentration 0.1 μg, 0.5 μg, 2 μg/ml); “strong” in data set [2] (Hep-G2, high concentration 10, 50 μg/ml); “weak” in data set [2] (Hep-G2, low concentration 0.1 μg, 0.5 μg, 2 μg/ml); “strong” in data set [4] (HT-29, high concentration 10, 50 μg/ml); “weak” in data set [4] (HT-29, low concentration 0.1 μg, 0.5 μg, 2 μg/ml). The “Death number (r)” value in data set [3] (setting [5]) was 0; in data set [3] (setting [6]) it was 1; in data set [3] (setting [7]) it was 3; in data set [3] (setting [8]) it was 6; in data set [3] (setting [9]), 10. The “Lethal rate(%)” value in data set [3] (setting [5]) was 0%; in data set [3] (setting [6]), 10%; in data set [3] (setting [7]), 30%; in data set [3] (setting [8]), 60%; in data set [3] (setting [9]) it was 100%. In addition, the “Probability unit (y)” value in data set [3] (setting [5]) turned out to be 0; in data set [3] (setting [6]), 3.72; in data set [3] (setting [7]) it was 4.48; in data set [3] (setting [8]), 5.25.
